Data set [1] concerns the target T1, SLC-1 expression CHO cell membrane fraction (MCH receptor) (UniProt Q99705).
T1 construct: full-length coding regions in pAKKO-111H
As to the kind of experiment: Antagonistic activity of test compound using GTP γ S binding assay. It counts as biochemical, human/rat. To be noted: inhibition of MCH-stimulated [35S]-GTPγS binding, 25° C., 1 hr, read-out: Inhibitory activity (IC50: nM). The protocol: Using human SLC-1 expression CHO cell clone 57 obtained in Reference Example 1-10 and rat SLC-1 expression CHO cell clone 44 obtained in Reference Example 1-4, membrane fractions were prepared by the following method. In phosphate buffered saline (pH 7.4) supplemented with 5 mM EDTA (ethylenediamine tetraacetic acid) were suspended human and rat SLC-1 expression CHO cells (1×10^8) and centrifuged. Homogenate buffer (10 ml, 10 mM NaHCO3, 5 mM EDTA, pH 7.5) was added to the pellets of the cells and, using Polytron Homogeniser, the mixture was homogenated. The supernatant obtained after centrifugation at 400×g for 15 min was further centrifuged at 100,000×g for 1 hr to give precipitate of the membrane fraction. […]
The antagonistic activity of the test compound was determined as follows. […] Liquid scintillator (50 ml) was added to the glass filter and the residual radioactivity was determined by a liquid scintillation counter. Binding inhibition (%)=(radioactivity upon addition of compound and MCH−radioactivity upon addition of DMSO solution)/(radioactivity upon addition of MCH−radioactivity upon addition of DMSO solution)×100
From the binding inhibition (%), IC50 of the compound was calculated.
(In general: Binding of GTPγS marks nucleotide exchange on a G protein.)

As usually defined, the melting point is the temperature, or range, at which the solid turns liquid. The IC50 is the concentration at which inhibition is half-maximal. For the molecule `COc1ccc(-c2ccc(C(=O)Nc3ccc4cc(CN5CCCC5)cnc4c3)cn2)cc1` [Example 8, 6-(4-methoxyphenyl)-N-[3-(1-pyrrolidinylmethyl)-7-quinolinyl]nicotinamide], the melting point was in the range of 246 to 248 °C. The IC50 in data set [1] came to 6 nM.
